# Test results: patent US11840686B2, “Modulation of prekallikrein (PKK) expression” (Ionis Pharmaceuticals, Inc., priority 2013, dated 2023)
# Strand notation (5' to 3'): a small letter for the sugar, then the base; units joined by * are phosphorothioate-linked, units joined directly phosphodiester-linked; [ ] holds rarer units or linkages, { } end groups; capitals alone tell only the bases. e = 2'-O-(2-methoxyethyl) (MOE); k = constrained ethyl (cEt); [5mC] = 5-methylcytosine; d = 2'-deoxy (DNA)
# How the values were obtained:
# Assay type in all cases: cell-based
# [1] = system: human PKK mRNA; test: Antisense inhibition of human PKK mRNA in HepaRG cells, 1,000 nM, MOE/deoxy/cEt oligonucleotides (Example 3); settings: HepaRG cells, electroporation with 1,000 nM antisense oligonucleotide, approximately 24 hours, primer probe set RTS3454, relative to untreated control cells; experiment of Table 24
# In short: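 HepaRG cells at 20,000 per well electroporated with 1,000 nM 16-mer MOE/cEt/deoxy gapmers (phosphorothioate, 5-methylcytosine). After about 24 h, PKK mRNA measured by qRT-PCR with primer probe set RTS3454, normalized to RIBOGREEN total RNA. Reported as percent inhibition versus untreated cells.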
# [2] = system: human PKK mRNA; test: Dose-dependent antisense inhibition of human PKK in HepaRG cells, 0.11-3.00 uM (Example 6)
# Experimental: Cells were plated at a density of 20,000 cells per well and transfected using electroporation with 0.11 μM, 0.33 μM, 1.00 μM, and 3.00 μM concentrations of antisense oligonucleotide. After a treatment period of approximately 16 hours, RNA was isolated from the cells and PKK mRNA levels were measured by quantitative real-time PCR. Human PKK primer probe set RTS3454 was used to measure mRNA levels. PKK mRNA levels were adjusted according to total RNA content, as measured by RIBOGREEN®. The antisense oligonucleotides were tested in a series of experiments that had similar culture conditions.
# The half maximal inhibitory concentration (IC50) of each oligonucleotide is also presented.
# [3] = system: human PKK mRNA; test: Antisense inhibition of human PKK mRNA in HepaRG cells, 5,000 nM (Example 2)
# In short: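 Percent inhibition of PKK mRNA is reported relative to untreated cells, after adjustment for total RNA by RIBOGREEN. Gapmers of 16–20 nucleosides with 2′-MOE wings were delivered at 5,000 nM by electroporation into HepaRG cells and left for roughly 24 hours before RNA isolation.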
# [4] = system: human PKK mRNA; test: Dose-dependent antisense inhibition of human PKK in HepaRG cells, 0.19-5.00 uM (Example 5)
# In short: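 HepaRG cells (20,000/well) were electroporated with antisense oligonucleotide at 0.19, 0.56, 1.67 and 5.00 μM and treated for about 16 hours. PKK mRNA was quantified by qRT-PCR with primer probe set RTS3454, normalised to RIBOGREEN total RNA, and IC50 was derived per oligonucleotide.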
# [5] = human PKK mRNA in HepaRG cells, 5-10-5 gapmers, Table 14
# [6] = Table 34, HepaRG, electroporation, ~16 h
# [7] = HepaRG cells, electroporation, approximately 16 hours, Table 35
# [8] = 4 point dose response, HepaRG cells, Table 35
# [9] = HepaRG cells, electroporation, approximately 16 hours, Table 37
# [10] = HepaRG cells, electroporation, approximately 16 hours, Table 36
substance,measurement,setting,value
548004 (eA*eG*kT*dA*dA*d[5mC]*d[5mC]*dA*dG*dA*dG*d[5mC]*dT*k[5mC]*k[5mC]*e[5mC]; antisense) [compound 548004],% inhibition,[1],80%
same,IC50,[2]; 0.11-3.00 μM,300 nM
same,"percent inhibition of PKK mRNA, 0.11 μM","[2]; electroporation, 0.11 μM, approx. 16 hours, relative to untreated control cells",24%
same,"percent inhibition of PKK mRNA, 0.33 μM","[2]; electroporation, 0.33 μM, approx. 16 hours, relative to untreated control cells",47%
same,"percent inhibition of PKK mRNA, 1.00 μM","[2]; electroporation, 1.00 μM, approx. 16 hours, relative to untreated control cells",80%
same,"percent inhibition of PKK mRNA, 3.00 μM","[2]; electroporation, 3.00 μM, approx. 16 hours, relative to untreated control cells",92%
547587 (e[5mC]*eT*eA*eT*eA*dA*d[5mC]*dA*dG*dT*dA*dT*d[5mC]*dA*d[5mC]*eT*eG*eT*e[5mC]*e[5mC]; antisense) [compound 547587],% inhibition,[3]; [5],96%
same,percent inhibition of PKK at 5.00 μM,"[4]; HepaRG cells, electroporation, approximately 16 hours, Table 41",97%
same,percent inhibition of PKK at 0.19 0μM,"[4]; 0.19 0μM, HepaRG cells, electroporation, approximately 16 hours, Table 41",38%
same,percent inhibition of PKK at 0.56 0μM,"[4]; 0.56 0μM, HepaRG cells, electroporation, approximately 16 hours, Table 41",64%
same,percent inhibition of PKK at 1.67 1μM,"[4]; 1.67 1μM, HepaRG cells, electroporation, approximately 16 hours, Table 41",91%
same,IC50,"[4]; 4 point dose response, HepaRG cells, Table 41",300 nM
same,percent inhibition of PKK at 0.19 μM,[4]; [6],20%
same,percent inhibition of PKK at 0.56 μM,[4]; [6],62%
same,percent inhibition of PKK at 1.67 μM,[4]; [6],84%
same,percent inhibition of PKK at 5.00 μM,[4]; [6],86%
same,IC50,"[4]; Table 34, PKK mRNA, HepaRG, electroporation, ~16 h",500 nM
546301 (antisense eT*eT*eG*eT*eA*dA*dT*dG*dT*d[5mC]*dT*dG*dA*d[5mC]*dA*eG*eA*eT*eT*eT) [compound 546301],% inhibition,"[3]; Table 8, HepaRG cells, electroporation with 5,000 nM antisense oligonucleotide, approx. 24 hours, PKK mRNA by RT-PCR (RTS3454), relative to untreated control cells",93%
same,percent inhibition of PKK at 0.19 μM,[4]; [7],25%
same,percent inhibition of PKK at 0.56 μM,[4]; [7],50%
same,percent inhibition of PKK at 1.67 μM,[4]; [7],53%
same,percent inhibition of PKK at 5.00 μM,[4]; [7],87%
same,IC50,[4]; [8],800 nM
546939 (eG*e[5mC]*e[5mC]*eA*eT*d[5mC]*dT*dG*dG*dT*dT*dA*dG*d[5mC]*d[5mC]*eT*e[5mC]*e[5mC]*eG*eA; antisense) [compound 546939],% inhibition,"[3]; HepaRG cells, 5,000 nM antisense oligonucleotide, 5-10-5 gapmers, Table 16",89%
same,percent inhibition of PKK at 0.19 μM,[4]; [9],1%
same,percent inhibition of PKK at 0.56 μM,[4]; [9],66%
same,percent inhibition of PKK at 1.67 μM,[4]; [9],86%
same,percent inhibition of PKK at 5.00 μM,[4]; [9],90%
same,IC50,"[4]; 4 point dose response, HepaRG cells, Table 37",600 nM
same,"percent inhibition of PKK mRNA, 0.19 μM","[4]; HepaRG cells, 0.19 μM antisense oligonucleotide",16%
same,"percent inhibition of PKK mRNA, 0.56 μM","[4]; HepaRG cells, 0.56 μM antisense oligonucleotide",71%
same,"percent inhibition of PKK mRNA, 1.67 μM","[4]; HepaRG cells, 1.67 μM antisense oligonucleotide",96%
same,"percent inhibition of PKK mRNA, 5.00 μM","[4]; HepaRG cells, 5.00 μM antisense oligonucleotide",95%
same,IC50,"[4]; HepaRG cells, 0.19-5.00 μM",400 nM
546852 (e[5mC]*eA*eG*eT*eA*dT*d[5mC]*dA*d[5mC]*dT*dG*dT*d[5mC]*d[5mC]*dT*eA*eT*eA*eT*e[5mC]; antisense) [compound 546852],% inhibition,[3]; [5],94%
same,percent inhibition of PKK at 0.19 μM,[4]; [7],19%
same,percent inhibition of PKK at 0.56 μM,[4]; [7],40%
same,percent inhibition of PKK at 1.67 μM,[4]; [7],78%
same,percent inhibition of PKK at 5.00 μM,[4]; [7],85%
same,IC50,[4]; [8],800 nM
547364 (eG*eA*eA*e[5mC]*e[5mC]*d[5mC]*dT*dG*dG*d[5mC]*dA*dA*d[5mC]*dA*dT*e[5mC]*e[5mC]*eA*e[5mC]*eA; antisense) [compound 547364],% inhibition,"[3]; Table 7, HepaRG cells, electroporation with 5,000 nM antisense oligonucleotide, approx. 24 hours, PKK mRNA by RT-PCR (RTS3454), relative to untreated control cells",92%
same,percent inhibition of PKK at 0.19 μM,[4]; [10],38%
same,percent inhibition of PKK at 0.56 μM,[4]; [10],47%
same,percent inhibition of PKK at 1.67 μM,[4]; [10],54%
same,percent inhibition of PKK at 5.00 μM,[4]; [10],89%
same,IC50,"[4]; 4 point dose response, HepaRG cells, Table 36",600 nM
